Residues, ends and D or L forms follow the SMILES beside them.
Legend:
[1] = Sweetness degree and taste characteristics of sweetener solutions equivalent to 8% by mass aqueous sugar solution; conditions: intensity of sweetness, sweetness degree of sugar defined as 1
Method: Solutions, each having a sweetness degree corresponding to an 8% by mass aqueous sugar solution, were prepared using the various high-intensity sweeteners shown in Table 1. In Table 1, each of the sweetness degrees represents the intensity of sweetness wherein the sweetness degree of sugar is defined as 1, and each of the concentrations represents the concentration of a high-intensity sweetener in the solution.

[2] = Sensory evaluation by seven panelists: improvement of the quality of sweetness and impure taste of a high-intensity sweetener solution after adding the improving agent; conditions: summary of Table 2
Method: The resultant solution 1 (an aspartame solution) in Preparation Example 3 was added the resultant solution in Preparation Example 1 in an amount of 0.033% by mass. The concentration of isobutyl angelate added to the solution 1 was 0.0099 ppm by mass. The taste of the solution 1 having isobutyl angelate added thereto was evaluated by the following method.
The solution 1 (without addition of isobutyl angelate) was tasted by seven panelists (one twenty-something male, one thirty-something male, one forty-something male, one fifty-something male, one sixty-something male, and one twenty-something female and one thirty-something female). Subsequently, the seven panelists rinsed their mouths sufficiently, and then the solution 1 containing isobutyl angelate (with addition of isobutyl angelate) was tasted by the seven panelists. The panelists compared the isobutyl-angelate-free solution with the isobutyl-angelate-added solution, and then determined whether or not the quality of sweetness and the impure taste of the isobutyl-angelate-added solution were improved compared with the isobutyl-angelate-free solution in accordance with the following criteria. When the sum total of the scores determined by the seven panelists was 10 points or greater, it was determined that the quality of sweetness and the impure taste were improved. […]

Row | Compound | Sweetness degree [1] [times] | Unpleasant aftertaste and impure taste (harsh, astringent) of a high-intensity sweetener in a solution [2]
1 | CC1=CC(=O)NS(=O)(=O)O1 [Acesulfame potassium] | 200 | –
2 | C/C=C(/C)C(=O)OCC(C)C [isobutyl angelate, Isobutyl angelate] | – | can be improved
3 | OC[C@H]1O[C@H](O[C@]2(CCl)O[C@H](CCl)[C@@H](O)[C@@H]2O)[C@H](O)[C@@H](O)[C@H]1Cl [Sucralose] | 600 | –
4 | COC(=O)[C@H](Cc1ccccc1)NC(=O)[C@@H](N)CC(=O)O [Aspartame] (H-Asp-Phe-OMe) | 200 | –
